Measurements published in the supplement of paper PMC10307832.

Assays:
Experiment in all cases: relative viability (nuclei count vs DMSO), 5 days (fraction); higher = more cells survive
[1] = compound: CC(C)(C)c1cc(NC(=O)Nc2ccc(-c3cn4c(n3)sc3cc(OCCN5CCOCC5)ccc34)cc2)no1 [Quizartinib] + CC(=O)c1c(C)c2cnc(Nc3ccc(N4CCNCC4)cn3)nc2n(C2CCCC2)c1=O [Palbociclib] (partner 0.5 µM)
Outline: (§1)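 Dosing by pin tool came one day after lung cancer cell lines were seeded in 1536-well plates, using either one drug or a fixed anchor-drug dose plus five library-drug doses (not always all listed) in √10 steps. After 5 days, nuclei were counted on 4× images. Relative viability is treated-well nuclei count divided by vehicle-well nuclei count, and values are medians of duplicate plates.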

YM155 + Bortezomib = compound: COCC[n+]1c2c(n(Cc3cnccn3)c1C)C(=O)c1ccccc1C2=O [YM155] + CC(C)C[C@H](NC(=O)[C@H](Cc1ccccc1)NC(=O)c1cnccn1)B(O)O [Bortezomib] (partner 0.002 µM)
Outline: as §1

YM155 + Vorinostat = compound: COCC[n+]1c2c(n(Cc3cnccn3)c1C)C(=O)c1ccccc1C2=O [YM155] + O=C(CCCCCCC(=O)Nc1ccccc1)NO [Vorinostat] (partner 1 µM)
Outline: as §1

Quizartinib + Crizotinib = compound: CC(C)(C)c1cc(NC(=O)Nc2ccc(-c3cn4c(n3)sc3cc(OCCN5CCOCC5)ccc34)cc2)no1 [Quizartinib] + C[C@@H](Oc1cc(-c2cnn(C3CCNCC3)c2)cnc1N)c1c(Cl)ccc(F)c1Cl [Crizotinib] (partner 1 µM)
Outline: as §1

| Cell Line | relative viability ([1]; first compound 0.001 µM) | relative viability ([1]; first compound 0.003162 µM) | relative viability ([1]; first compound 0.01 µM) | relative viability ([1]; first compound 0.03162 µM) | relative viability ([1]; first compound 0.1 µM) | relative viability (YM155 + Bortezomib; first compound 0.002 µM) | relative viability (YM155 + Bortezomib; first compound 0.006325 µM) | relative viability (YM155 + Bortezomib; first compound 0.02 µM) | relative viability (YM155 + Bortezomib; first compound 0.06325 µM) | relative viability (YM155 + Vorinostat; first compound 0.002 µM) | relative viability (YM155 + Vorinostat; first compound 0.006325 µM) | relative viability (YM155 + Vorinostat; first compound 0.02 µM) | relative viability (YM155 + Vorinostat; first compound 0.06325 µM) | relative viability (Quizartinib + Crizotinib; first compound 0.001 µM) | relative viability (Quizartinib + Crizotinib; first compound 0.003162 µM) | relative viability (Quizartinib + Crizotinib; first compound 0.01 µM) | relative viability (Quizartinib + Crizotinib; first compound 0.03162 µM) | relative viability (Quizartinib + Crizotinib; first compound 0.1 µM) |
| --- | --- | --- | --- | --- | --- | --- | --- | --- | --- | --- | --- | --- | --- | --- | --- | --- | --- | --- |
| NCI-H2228 | 0.695 | 0.936 | 0.773 | 1.03 | 0.76 | 0.975 | 0.923 | 1.11 | 1.1 | 0.451 | 0.82 | 0.585 | 0.51 | 0.439 | 0.414 | 0.317 | 0.418 | 0.429 |
| EPLC-272H | 0.304 | 0.355 | 0.301 | 0.311 | 0.312 | 0.846 | 1.04 | 0.875 | 0.862 | 0.443 | 0.384 | 0.357 | 0.55 | 0.826 | 0.828 | 0.739 | 0.845 | 1.01 |
| RERF-LC-KJ | 1.05 | 1.05 | 1.17 | 0.984 | 1.02 | 1.11 | 1.18 | 1.09 | 1.25 | 0.694 | 0.794 | 0.654 | 0.759 | 0.8 | 0.596 | 1 | 0.795 | 0.798 |
| NCI-H1793 | 0.331 | 0.277 | 0.33 | 0.329 | 0.34 |  |  |  |  | 0.719 | 0.641 | 0.89 | 0.74 |  |  |  |  |  |
| NCI-H727 | 0.677 | 0.684 | 0.625 | 0.673 | 0.765 | 0.88 | 0.771 | 0.924 | 0.977 | 1.32 | 1.28 | 1.27 | 1.29 | 0.74 |  | 0.939 | 0.772 | 0.662 |
| SK-LU-1 | 0.366 | 0.361 | 0.443 | 0.381 | 0.388 | 1.05 | 1.04 | 1.54 | 1.09 | 0.732 | 0.762 | 0.845 | 0.642 | 0.797 | 0.785 | 1.23 | 0.781 | 0.914 |
| PC-14 | 0.485 | 0.457 | 0.488 |  | 0.477 | 0.905 | 0.861 | 0.93 | 0.771 | 0.669 | 0.694 | 0.779 | 0.252 | 0.839 | 0.917 | 1.07 | 0.814 | 0.818 |
| NCI-H1437 | 0.298 | 0.288 | 0.32 | 0.299 | 0.261 | 0.501 | 0.501 | 0.516 | 0.519 | 0.83 | 0.809 | 0.833 | 0.432 | 0.822 | 0.849 | 0.906 | 0.687 | 0.608 |
| EBC-1 |  |  |  |  |  | 0.613 | 0.458 | 0.566 | 0.593 |  |  |  |  | 0.197 | 0.173 | 0.211 | 0.207 | 0.211 |
| SK-MES-1 | 0.338 | 0.286 | 0.362 | 0.299 | 0.292 |  |  |  |  | 1 | 1.17 | 1.11 | 0.415 | 0.943 | 0.949 | 1.12 | 0.976 | 0.937 |
| LK-2 | 0.734 | 0.621 | 0.853 | 0.599 | 0.69 |  |  |  |  | 0.304 | 0.139 | 0.388 | 0.305 | 0.186 | 0.224 | 0.229 | 0.238 | 0.24 |
| NCI-H1944 | 0.345 | 0.306 | 0.293 | 0.35 | 0.294 |  |  |  |  | 0.596 | 0.511 | 0.599 | 0.629 | 1.11 | 1.09 | 1.15 | 1.21 | 1.11 |
| IA-LM |  |  |  |  |  | 0.806 | 0.78 | 0.874 | 0.737 | 0.863 | 0.932 | 0.942 | 0.97 | 0.858 | 0.912 | 0.726 |  | 0.623 |
| NCI-H522 | 0.898 | 0.995 | 1.01 | 1.34 | 0.977 |  |  |  |  | 0.846 | 0.78 | 0.933 | 0.932 |  |  |  |  |  |
| NCI-H1792 |  | 0.654 | 0.702 | 0.617 | 0.66 | 0.816 | 0.97 | 0.943 | 1 |  |  |  |  | 0.743 | 0.978 | 1.04 | 0.958 | 0.995 |
| A549 |  |  |  |  |  |  |  |  |  |  |  |  |  | 0.703 | 0.691 | 0.879 | 0.457 | 0.686 |
| NCI-H1563 |  |  |  |  |  | 0.974 | 0.926 | 0.907 | 0.989 |  |  |  |  | 0.825 | 0.851 | 0.982 |  | 0.78 |
| NCI-H358 | 0.131 | 0.117 | 0.134 |  | 0.138 |  |  |  |  | 0.641 | 0.643 | 0.86 | 0.106 | 0.584 | 0.558 | 0.66 |  | 0.38 |
| NCI-H2170 | 0.385 | 0.365 | 0.392 | 0.367 | 0.358 |  |  |  |  | 0.725 | 0.752 | 0.863 | 0.842 | 1.15 | 1.11 | 1.17 | 1.2 | 1.19 |
| Calu-6 |  |  |  |  |  | 0.966 | 0.84 | 0.298 | 0.188 |  |  |  |  | 0.719 | 0.714 | 0.814 | 0.621 | 0.752 |
